Assay results published in patent US20200030305A1, “LOCAL ANESTHETIC-CONTAINING ACIDIC EMULSION COMPOSITION” (Maruishi Pharmaceutical Co., Ltd., priority 2017, published 2020).
Where a name gives a salt, the structure may show the parent alone.

Assay: Oil-water partition ratio
Format: physicochemical
Details: 0.05% by mass aqueous solution vs oil phase soybean oil:MCT 1:1, 25° C.
Method: 5 g of an oil phase (soybean oil:medium-chain fatty acid triglyceride=1:1) was added to 5 g of a 0.05% by mass aqueous levobupivacaine hydrochloride solution, and the mixture was stirred with a vortex mixer for 1 minute. After that, the whole was transferred to a centrifugation tube and centrifuged at 3600 rpm at 25° C. for 10 minutes, and the aqueous phase was separated. The levobupivacaine concentration of the aqueous phase was measured by HPLC, and the oil-water partition ratio was determined.

proportion present in the aqueous phase (oil-water partition ratio): 94.3%
Compound: CCCCN1CCCC[C@H]1C(=O)Nc1c(C)cccc1C [levobupivacaine hydrochloride, (2S)-1-butyl-N-(2,6-dimethylphenyl)piperidine-2-carboxamide]
